Reference: US6444144B1, “Polyethoxylated ascorbic acid derivatives as a novel antioxidant and process for preparing thereof” (LG Chemical Ltd., priority 1998, dated 2002)
Where two headings read alike, the source gives them in different places.

Assays:
[1] = target: Tyrosinase extracted from mushrooms; test: Inhibitory activity against tyrosinase; assay type: biochemical; conditions: L-tyrosine substrate, DOPA cofactor, pH 6.8, 37° C., 10 minutes, absorbance at 475 nm
Method: Tyrosinase extracted from mushrooms was purchases from Sigma Co. First, L-tyrosine as a substrate was dissolved in a 0.05M phosphate buffer solution (pH 6.8) to have a concentration of 1.5 mM. 0.01 ml of this solution was added to a 0.3 ml spectrophotometer cuvette, followed by 0.01 ml of 0.06 mM dihydroxyphenylalamine (DOPA) as a cofactor. To this solution were added compounds of Formulas (II) and (III) and the phosphate buffer solution to have the total volume of 0.1 ml. […] Meanwhile, a blank was prepared by adding only 0.1 ml of the phosphate buffer solution. The reaction was performed at 37° C. for 10 minutes. The absorbance was measured at 475 nm with a spectrophotometer (Beckman DU-7500) to determine the inhibitory rate against tyrosinase. IC50 value was determined as the concentration of the inhibitor whose inhibitory rate against the enzyme amounts to 50%. Inhibitory Rate(%)=[(A−B)/A]×100 wherein A is the absorbance at 475 nm in a solution containing no inhibitor, and B is the absorbance at 475 nm in a solution containing an inhibitor.

[2] = Radical scavenging effect (DPPH method); conditions: for radical scavenging effect (in words): comment on Table 2, DPPH, 1 hour and 24 hours; for IC50: DPPH, absorption at 517 nm
Method: Measurement was made using the 1,1-diphenyl-2-picrylhydrazyl (DPPH) method [Blois, M. S. Nature, 1958, 181, 1190]. DPPH is a relatively stable radical with the maximum absorption at 517 nm. The absorption at this wavelength disappears upon removal of the radical. DPPH was purchased from Sigma Co. and dissolved in methanol to make the concentration of 0.5 mM.
First, 100 μl of each solution (10^−l to 10^−6 M) of the individual compounds prepared in examples 1 to 4 were placed in each well of a 96-well plate. After adding 100 μl of DPPH solution and standing the reaction mixture at the room temperature, the absorption at 517 nm was measured for each well using a micro plate reader (BioTeck EL-340). A blank solution was prepared to contain 100 μl of methanol instead of the above compounds. The concentration of the individual compounds was denoted by IC50 at the time when the absorption of the test sample becomes a half of that of the blank solution. The absorption was measured at 1 hour and at 24 hours after treatment.

[3] = female, naked mouse, 24 h, 5 % (w/v), pH 7.4
Method: More specifically, a dorsal skin of 8-weeks aged female mouse (naked mouse) was cut off and then 5% (w/v) solution of the test sample was applied in an amount of 50 μl to the skin having a size of 1.7 cm^2. Using the apparatus for measuring transdermal absorption test (Franz cell), after 24 hours, the absorbed material was extracted from 7 ml of the receptor solution [50 mM PBS buffer solution (pH=7.4) containing 2% Vol PO20 polyethylene oleyl ether (HLB=16)] and then quantitatively analyzed by HPLC.

[4] = 24 hours after treatment, read-out: Radical Scavenging Effect IC50 After 24 hrs.
[5] = read-out: Radical Scavenging Effect IC50 After 1 hour, 1 hour after treatment

Molecule	IC50 [1] [mM]	radical scavenging effect (in words) [2]	IC50 [2, 4] [mM]	IC50 [2, 5] [mM]	Absorption Rate (%) [3] [%]	Total Transdermal Absorption Amount [3] [mg]
3-O-PEG550-ascorbic acid	7.06	an increase in the radical scavenging effect with an elapse of time	–	–	–	–
2-O-PEG550-Ascorbic Acid	7.06	potent radical scavenging effect in a short time	4.2	7.9	–	–
3-O-PEG350-Ascorbic Acid	9.8	an increase in the radical scavenging effect with an elapse of time	5.9	78.7	–	–
O=C1O[C@H]([C@@H](O)CO)C(O)=C1O [Ascorbic acid]	0.47	–	3.4	3.4	1.2	0.03
2-O-PEG350-Ascorbic Acid	1.97	potent radical scavenging effect in a short time	5.9	7.9	–	–
CCOC1=C(O)C(=O)O[C@@H]1[C@@H](O)CO [3-O-Ethyl-ascorbic acid, reference compound]	9.8	–	9.8	9.8	–	–
